The source made the active and inactive calls. Cut-off read from the data, not from the text of the source, for most assays here: actives have a measured Kd and inactives only a lower limit.
Legend:
[1] = molecular target: Ribosomal protein S6 kinase alpha-5 (Homo sapiens, UniProt O75582)
[2] = molecular target: S-adenosylmethionine synthase isoform type-2 (Homo sapiens, UniProt P31153)
[3] = molecular target: ATP-dependent RNA helicase DDX3X (Homo sapiens, UniProt O00571)
[4] = molecular target: T1, EKC/KEOPS complex subunit TP53RK (Homo sapiens, UniProt Q96S44)
T1 sequence (Q96S44 whole entry): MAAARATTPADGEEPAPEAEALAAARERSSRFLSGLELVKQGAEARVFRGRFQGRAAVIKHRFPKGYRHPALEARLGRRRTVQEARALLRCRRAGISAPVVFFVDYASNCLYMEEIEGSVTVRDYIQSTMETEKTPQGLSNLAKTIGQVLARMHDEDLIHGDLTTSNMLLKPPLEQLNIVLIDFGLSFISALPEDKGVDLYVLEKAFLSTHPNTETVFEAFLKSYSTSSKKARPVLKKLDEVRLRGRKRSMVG

[5] = molecular target: Mitogen-activated protein kinase 1 (Homo sapiens, UniProt P28482)
[6] = molecular target: T2, Serine/threonine-protein kinase Nek3 (Homo sapiens, UniProt P51956)
T2 sequence (P51956 whole entry): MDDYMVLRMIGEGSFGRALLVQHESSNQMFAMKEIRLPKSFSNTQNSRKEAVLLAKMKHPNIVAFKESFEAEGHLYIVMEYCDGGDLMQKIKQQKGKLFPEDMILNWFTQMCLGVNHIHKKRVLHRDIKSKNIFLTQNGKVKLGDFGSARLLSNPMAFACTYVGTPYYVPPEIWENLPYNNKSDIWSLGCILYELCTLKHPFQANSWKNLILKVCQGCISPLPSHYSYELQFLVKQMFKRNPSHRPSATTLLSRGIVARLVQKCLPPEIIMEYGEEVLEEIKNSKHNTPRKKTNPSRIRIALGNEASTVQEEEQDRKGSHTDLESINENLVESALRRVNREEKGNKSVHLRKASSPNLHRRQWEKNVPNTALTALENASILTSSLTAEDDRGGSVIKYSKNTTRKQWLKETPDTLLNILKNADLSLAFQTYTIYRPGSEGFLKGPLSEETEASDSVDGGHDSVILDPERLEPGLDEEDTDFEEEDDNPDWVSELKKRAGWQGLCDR

[7] = molecular target: T3, Phosphatidylinositol 5-phosphate 4-kinase type-2 gamma (Homo sapiens, UniProt Q8TBX8)
T3 sequence (Q8TBX8 whole entry): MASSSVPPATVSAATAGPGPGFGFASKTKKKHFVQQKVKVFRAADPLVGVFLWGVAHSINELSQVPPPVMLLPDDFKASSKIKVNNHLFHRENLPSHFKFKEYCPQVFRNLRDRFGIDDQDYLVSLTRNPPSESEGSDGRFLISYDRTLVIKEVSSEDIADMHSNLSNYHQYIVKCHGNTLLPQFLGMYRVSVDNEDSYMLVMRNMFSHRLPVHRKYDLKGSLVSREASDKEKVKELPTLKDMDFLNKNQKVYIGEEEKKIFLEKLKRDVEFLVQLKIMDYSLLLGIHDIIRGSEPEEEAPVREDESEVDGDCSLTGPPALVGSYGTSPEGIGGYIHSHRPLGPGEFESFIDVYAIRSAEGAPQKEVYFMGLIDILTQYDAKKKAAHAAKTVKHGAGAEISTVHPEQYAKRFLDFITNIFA

[8] = molecular target: Calcium/calmodulin-dependent protein kinase type II subunit gamma (Homo sapiens, UniProt Q13555)
[9] = molecular target: Bone morphogenetic protein receptor type-1B (Homo sapiens, UniProt O00238)
[10] = molecular target: BMP-2-inducible protein kinase (Homo sapiens, UniProt Q9NSY1)
Activated CDC42 kinase 1 = Activated CDC42 kinase 1 (Homo sapiens, UniProt Q07912)
[11] = molecular target: Serine/threonine-protein kinase PAK 4 (Homo sapiens, UniProt O96013)
Note: in the data inactive means no Kd found up to 30 µM.

Sequence of Activated CDC42 kinase 1 (Q07912 whole entry): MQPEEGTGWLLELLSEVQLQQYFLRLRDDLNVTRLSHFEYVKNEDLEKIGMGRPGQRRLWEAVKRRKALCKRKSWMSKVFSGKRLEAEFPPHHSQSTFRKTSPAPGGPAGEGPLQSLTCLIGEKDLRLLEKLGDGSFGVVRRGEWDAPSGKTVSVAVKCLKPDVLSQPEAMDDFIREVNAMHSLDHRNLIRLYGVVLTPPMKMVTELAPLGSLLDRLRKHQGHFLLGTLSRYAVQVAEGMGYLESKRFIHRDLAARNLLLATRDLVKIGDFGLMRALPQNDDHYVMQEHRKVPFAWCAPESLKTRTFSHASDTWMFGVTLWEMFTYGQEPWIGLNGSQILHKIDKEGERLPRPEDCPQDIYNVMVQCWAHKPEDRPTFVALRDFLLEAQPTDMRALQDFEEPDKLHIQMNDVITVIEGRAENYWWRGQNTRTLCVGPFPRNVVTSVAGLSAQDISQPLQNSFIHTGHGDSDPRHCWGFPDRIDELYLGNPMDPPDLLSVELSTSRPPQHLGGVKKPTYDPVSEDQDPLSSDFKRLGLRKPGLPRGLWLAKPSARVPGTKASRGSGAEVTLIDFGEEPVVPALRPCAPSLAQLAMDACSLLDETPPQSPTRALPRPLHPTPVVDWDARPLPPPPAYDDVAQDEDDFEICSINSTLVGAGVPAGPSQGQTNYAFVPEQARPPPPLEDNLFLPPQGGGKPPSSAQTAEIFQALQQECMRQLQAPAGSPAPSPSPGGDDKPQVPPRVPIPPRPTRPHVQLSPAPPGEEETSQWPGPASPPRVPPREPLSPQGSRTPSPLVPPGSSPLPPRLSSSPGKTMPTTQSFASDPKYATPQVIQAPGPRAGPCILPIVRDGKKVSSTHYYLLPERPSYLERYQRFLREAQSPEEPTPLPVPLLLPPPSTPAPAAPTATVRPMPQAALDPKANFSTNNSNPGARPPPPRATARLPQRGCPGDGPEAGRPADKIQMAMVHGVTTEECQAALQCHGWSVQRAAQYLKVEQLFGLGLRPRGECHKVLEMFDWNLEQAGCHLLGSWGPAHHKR
Sequence of S-adenosylmethionine synthase isoform type-2 (P31153 whole entry, canonical isoform): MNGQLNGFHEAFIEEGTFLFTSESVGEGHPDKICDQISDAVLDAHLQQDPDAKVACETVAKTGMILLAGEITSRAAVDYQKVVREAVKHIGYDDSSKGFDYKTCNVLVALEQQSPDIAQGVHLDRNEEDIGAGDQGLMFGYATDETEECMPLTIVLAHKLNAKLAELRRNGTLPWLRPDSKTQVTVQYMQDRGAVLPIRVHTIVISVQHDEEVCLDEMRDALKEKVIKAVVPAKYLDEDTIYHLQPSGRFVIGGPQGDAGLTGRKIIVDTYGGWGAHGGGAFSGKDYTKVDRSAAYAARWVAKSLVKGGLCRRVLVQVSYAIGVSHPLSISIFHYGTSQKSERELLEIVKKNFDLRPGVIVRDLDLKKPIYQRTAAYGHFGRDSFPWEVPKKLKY
Sequence of BMP-2-inducible protein kinase (Q9NSY1 whole entry): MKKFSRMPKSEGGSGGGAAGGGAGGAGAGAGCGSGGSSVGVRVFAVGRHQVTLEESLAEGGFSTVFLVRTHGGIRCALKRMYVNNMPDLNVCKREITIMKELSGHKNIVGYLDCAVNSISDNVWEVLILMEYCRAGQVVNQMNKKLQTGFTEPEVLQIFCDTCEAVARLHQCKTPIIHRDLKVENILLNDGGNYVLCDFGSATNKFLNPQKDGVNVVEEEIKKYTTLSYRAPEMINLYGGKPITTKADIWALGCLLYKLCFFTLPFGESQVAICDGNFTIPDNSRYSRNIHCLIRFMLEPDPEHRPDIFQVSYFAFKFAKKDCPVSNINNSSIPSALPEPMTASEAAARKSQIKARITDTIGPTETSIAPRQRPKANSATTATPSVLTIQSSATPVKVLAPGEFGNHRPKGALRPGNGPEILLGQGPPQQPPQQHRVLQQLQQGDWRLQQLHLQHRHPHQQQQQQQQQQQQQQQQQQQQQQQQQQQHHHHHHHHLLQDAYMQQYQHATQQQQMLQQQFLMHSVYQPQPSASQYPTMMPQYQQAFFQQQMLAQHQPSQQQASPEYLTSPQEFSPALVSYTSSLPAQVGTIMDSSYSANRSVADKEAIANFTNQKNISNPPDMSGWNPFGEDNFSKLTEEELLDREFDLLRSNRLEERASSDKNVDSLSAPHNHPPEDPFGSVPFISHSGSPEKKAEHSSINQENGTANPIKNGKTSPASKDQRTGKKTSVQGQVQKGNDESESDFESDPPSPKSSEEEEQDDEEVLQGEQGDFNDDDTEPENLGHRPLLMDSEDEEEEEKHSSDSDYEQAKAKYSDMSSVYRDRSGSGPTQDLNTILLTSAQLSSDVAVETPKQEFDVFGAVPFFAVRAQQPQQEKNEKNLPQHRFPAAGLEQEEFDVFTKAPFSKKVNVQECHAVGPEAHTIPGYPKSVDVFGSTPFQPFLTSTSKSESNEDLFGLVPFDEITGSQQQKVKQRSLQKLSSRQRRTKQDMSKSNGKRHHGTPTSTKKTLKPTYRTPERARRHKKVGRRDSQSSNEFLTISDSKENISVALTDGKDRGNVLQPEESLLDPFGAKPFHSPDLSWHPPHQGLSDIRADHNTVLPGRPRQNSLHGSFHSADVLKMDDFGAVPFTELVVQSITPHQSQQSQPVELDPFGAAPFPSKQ
Sequence of Bone morphogenetic protein receptor type-1B (O00238 whole entry): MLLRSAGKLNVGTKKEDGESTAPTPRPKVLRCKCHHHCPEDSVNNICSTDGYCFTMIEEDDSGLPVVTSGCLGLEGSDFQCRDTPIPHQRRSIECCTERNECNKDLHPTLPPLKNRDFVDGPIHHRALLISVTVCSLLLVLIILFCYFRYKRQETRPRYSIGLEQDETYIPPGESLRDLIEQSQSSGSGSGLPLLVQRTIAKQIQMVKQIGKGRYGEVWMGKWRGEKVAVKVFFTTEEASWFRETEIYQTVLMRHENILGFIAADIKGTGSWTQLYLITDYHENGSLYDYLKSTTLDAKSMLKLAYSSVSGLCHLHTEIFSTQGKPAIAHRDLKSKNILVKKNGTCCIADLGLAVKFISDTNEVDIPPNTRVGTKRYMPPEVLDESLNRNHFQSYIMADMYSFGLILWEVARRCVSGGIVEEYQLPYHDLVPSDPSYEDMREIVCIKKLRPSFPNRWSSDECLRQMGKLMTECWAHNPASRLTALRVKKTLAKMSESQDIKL
Sequence of Ribosomal protein S6 kinase alpha-5 (O75582 whole entry, canonical isoform): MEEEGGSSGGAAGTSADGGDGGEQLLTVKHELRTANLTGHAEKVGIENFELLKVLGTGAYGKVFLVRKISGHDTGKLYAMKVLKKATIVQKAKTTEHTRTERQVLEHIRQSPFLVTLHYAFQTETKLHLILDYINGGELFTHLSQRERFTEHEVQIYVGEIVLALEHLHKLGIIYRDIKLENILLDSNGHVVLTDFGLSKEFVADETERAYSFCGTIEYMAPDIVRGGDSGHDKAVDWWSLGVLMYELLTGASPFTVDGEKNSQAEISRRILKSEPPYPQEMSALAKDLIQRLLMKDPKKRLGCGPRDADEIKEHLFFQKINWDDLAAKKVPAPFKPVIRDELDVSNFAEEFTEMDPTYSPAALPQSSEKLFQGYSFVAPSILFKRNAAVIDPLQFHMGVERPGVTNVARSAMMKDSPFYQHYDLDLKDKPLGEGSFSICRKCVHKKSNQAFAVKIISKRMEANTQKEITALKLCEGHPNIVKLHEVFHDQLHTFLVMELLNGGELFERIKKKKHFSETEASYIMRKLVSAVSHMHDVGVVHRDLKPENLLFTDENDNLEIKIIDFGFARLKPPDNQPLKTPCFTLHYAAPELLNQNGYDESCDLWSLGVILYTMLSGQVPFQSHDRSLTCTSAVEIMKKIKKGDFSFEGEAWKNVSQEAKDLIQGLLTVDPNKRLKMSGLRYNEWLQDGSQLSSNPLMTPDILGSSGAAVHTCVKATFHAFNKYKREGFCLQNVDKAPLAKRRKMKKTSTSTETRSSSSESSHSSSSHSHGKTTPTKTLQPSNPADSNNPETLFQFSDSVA
Sequence of Serine/threonine-protein kinase PAK 4 (O96013 whole entry): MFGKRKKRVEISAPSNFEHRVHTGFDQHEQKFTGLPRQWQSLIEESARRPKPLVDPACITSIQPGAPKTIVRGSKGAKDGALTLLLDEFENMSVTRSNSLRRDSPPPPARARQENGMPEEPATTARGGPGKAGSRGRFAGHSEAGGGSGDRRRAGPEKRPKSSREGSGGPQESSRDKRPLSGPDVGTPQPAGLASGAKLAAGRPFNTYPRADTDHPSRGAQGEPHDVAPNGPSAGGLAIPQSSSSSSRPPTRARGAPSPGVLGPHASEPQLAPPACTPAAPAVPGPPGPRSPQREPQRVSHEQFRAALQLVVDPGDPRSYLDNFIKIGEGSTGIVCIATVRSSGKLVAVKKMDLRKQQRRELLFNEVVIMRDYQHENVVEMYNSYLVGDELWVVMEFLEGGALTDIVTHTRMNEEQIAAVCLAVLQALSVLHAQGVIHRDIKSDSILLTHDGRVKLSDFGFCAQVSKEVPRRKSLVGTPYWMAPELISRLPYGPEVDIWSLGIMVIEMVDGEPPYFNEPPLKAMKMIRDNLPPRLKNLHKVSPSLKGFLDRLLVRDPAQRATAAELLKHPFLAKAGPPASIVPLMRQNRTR
Sequence of Calcium/calmodulin-dependent protein kinase type II subunit gamma (Q13555 whole entry): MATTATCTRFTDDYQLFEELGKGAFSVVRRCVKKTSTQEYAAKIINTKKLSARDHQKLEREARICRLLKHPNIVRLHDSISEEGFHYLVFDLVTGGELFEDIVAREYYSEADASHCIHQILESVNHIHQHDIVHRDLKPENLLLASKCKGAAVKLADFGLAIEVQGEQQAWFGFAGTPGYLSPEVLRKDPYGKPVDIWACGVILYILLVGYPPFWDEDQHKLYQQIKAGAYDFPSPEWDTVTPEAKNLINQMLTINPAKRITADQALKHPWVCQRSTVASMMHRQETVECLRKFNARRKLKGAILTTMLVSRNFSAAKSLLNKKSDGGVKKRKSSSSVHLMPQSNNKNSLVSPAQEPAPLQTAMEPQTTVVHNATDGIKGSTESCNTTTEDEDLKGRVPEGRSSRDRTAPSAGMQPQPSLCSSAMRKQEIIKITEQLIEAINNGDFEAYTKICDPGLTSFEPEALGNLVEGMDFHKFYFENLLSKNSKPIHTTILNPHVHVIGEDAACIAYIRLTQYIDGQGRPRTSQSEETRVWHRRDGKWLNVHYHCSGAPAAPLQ

Kd [1]	Kd [2]	Kd [3]	Kd [4]	Kd [5]	Kd [6]	Kd [7]	Kd [8]	Kd [10]	Kd [11]	SMILES	Kd [9]	Kd (Activated CDC42 kinase 1)
–	> 30 µM (inactive)	> 30 µM (inactive)	> 30 µM (inactive)	–	–	–	–	–	–	COc1cc2c(N3CCN(C(=O)Nc4ccc(OC(C)C)cc4)CC3)ncnc2cc1OCCCN1CCCCC1 [TANDUTINIB]	–	–
–	> 30 µM (inactive)	> 30 µM (inactive)	> 30 µM (inactive)	–	–	–	–	–	–	CC1(C)CNc2cc(NC(=O)c3cccnc3NCc3ccncc3)ccc21 [MOTESANIB]	–	–
–	> 30 µM (inactive)	> 30 µM (inactive)	> 30 µM (inactive)	–	–	–	–	–	–	Cn1cnc2c(F)c(Nc3ccc(Br)cc3Cl)c(C(=O)NOCCO)cc21 [SELUMETINIB]	–	–
> 30 µM (inactive)	> 30 µM (inactive)	> 30 µM (inactive)	> 30 µM (inactive)	> 30 µM (inactive)	> 30 µM (inactive)	> 30 µM (inactive)	> 30 µM (inactive)	> 30 µM (inactive)	–	Cn1c(=O)n(-c2ccc(C(C)(C)C#N)cc2)c2c3cc(-c4cnc5ccccc5c4)ccc3ncc21 [DACTOLISIB]	–	–

More lines, now with the values behind:

SMILES	Kd [1]	Kd [2]	Kd [3]	Kd [4]	Kd [5]	Kd [6]	Kd [7]	Kd [8]	Kd [10]	Kd [11]	Kd [9]	Kd (Activated CDC42 kinase 1)
CCN(CCCOc1ccc2c(Nc3cc(CC(=O)Nc4cccc(F)c4)n[nH]3)ncnc2c1)CCOP(=O)(O)O [BARASERTIB]	> 30 µM (inactive)	> 30 µM (inactive)	> 30 µM (inactive)	> 30 µM (inactive)	> 30 µM (inactive)	> 30 µM (inactive)	> 30 µM (inactive)	> 30 µM (inactive)	> 30 µM (inactive)	–	> 30 µM (inactive)	–
COc1cc2c(Oc3ccc4[nH]c(C)cc4c3F)ncnc2cc1OCCCN1CCCC1 [CEDIRANIB]	–	> 30 µM (inactive)	> 30 µM (inactive)	> 30 µM (inactive)	–	–	–	–	–	–	–	–
Cc1cc(Nc2nc(N[C@@H](C)c3ncc(F)cn3)ncc2Cl)n[nH]1 [AZD-1480]	> 30 µM (inactive)	> 30 µM (inactive)	> 30 µM (inactive)	> 30 µM (inactive)	> 30 µM (inactive)	> 30 µM (inactive)	> 30 µM (inactive)	> 30 µM (inactive)	> 30 µM (inactive)	1.88 µM (active)	> 30 µM (inactive)	0.515 µM (active)
C[C@]1(O)C[C@@H](c2nc(-c3ccc4ccc(-c5ccccc5)nc4c3)c3c(N)nccn32)C1 [LINSITINIB]	–	> 30 µM (inactive)	> 30 µM (inactive)	> 30 µM (inactive)	–	> 30 µM (inactive)	5.57 µM (active)	–	> 30 µM (inactive)	–	> 30 µM (inactive)	> 30 µM (inactive)
CN(c1ncccc1CNc1nc(Nc2ccc3c(c2)CC(=O)N3)ncc1C(F)(F)F)S(C)(=O)=O [PF-00562271]	–	> 30 µM (inactive)	> 30 µM (inactive)	> 30 µM (inactive)	1.24 µM (active)	> 30 µM (inactive)	> 30 µM (inactive)	–	–	–	> 30 µM (inactive)	–
COc1cc2nccc(Oc3ccc(NC(=O)C4(C(=O)Nc5ccc(F)cc5)CC4)cc3)c2cc1OC [CABOZANTINIB]	> 30 µM (inactive)	> 30 µM (inactive)	> 30 µM (inactive)	> 30 µM (inactive)	> 30 µM (inactive)	> 30 µM (inactive)	2.9 µM (active)	> 30 µM (inactive)	> 30 µM (inactive)	> 30 µM (inactive)	> 30 µM (inactive)	> 30 µM (inactive)
C[C@@]1(C(=O)Nc2ccc(F)nc2)CCCN1c1nc(Nc2cc(C3CC3)n[nH]2)c2cccn2n1 [BMS-754807]	–	> 30 µM (inactive)	> 30 µM (inactive)	> 30 µM (inactive)	–	–	–	–	–	–	–	–
Cn1cc(-c2[nH]c3cc(NC(=O)[C@H](N)C4CCCCC4)cc4c3c2C=NNC4=O)cn1	> 30 µM (inactive)	> 30 µM (inactive)	> 30 µM (inactive)	> 30 µM (inactive)	> 30 µM (inactive)	> 30 µM (inactive)	> 30 µM (inactive)	> 30 µM (inactive)	0.006 µM (active)	0.053 µM (active)	2.01 µM (active)	> 30 µM (inactive)
CN(C)C/C=C/C(=O)Nc1cc2c(Nc3ccc(F)c(Cl)c3)ncnc2cc1O[C@H]1CCOC1 [AFATINIB]	–	> 30 µM (inactive)	> 30 µM (inactive)	> 30 µM (inactive)	–	–	–	–	–	–	–	–

From ChEMBL document CHEMBL3991601, “The target landscape of clinical kinase drugs” (Science, 2017)
